Four compounds from the NIST ThermoML archive (doi:10.1021/je200799u) can be followed below.

The data set is described as follows: refractive index (Na D-line) (dimensionless). The following applies: 298.15 K; 101.33 kPa; Liquid; Standard Abbe refractometry.

Numbers after ± are expanded uncertainties.

In the case of `CCCC(=O)[O-].C[NH2+]CCO` [N-methyl-2-hydroxyethylammonium butanoate], the refractive index (usually the speed of light in vacuum divided by its phase velocity in the sample) was found to be 1.4555 ± 0.0012.
Consider `CCCCCC(=O)[O-].C[NH2+]CCO` [N-methyl-2-hydroxyethylammonium hexanoate], for which the refractive index is listed as 1.4563 ± 0.0012.
As for `CC(=O)[O-].C[NH2+]CCO` [N-methyl-2-hydroxyethylammonium acetate], the refractive index is 1.4584 ± 0.0012.
As to `CCCCCCCCCCCC` [dodecane], the refractive index was 1.4196 ± 0.0007.
